In one assay the target is T1, human VDR (Homo sapiens, UniProt P11473).
T1 construct: made in house; host or cells: E. coli (cell lysate used)
T1 sequence (P11473 127-423 limits assumed): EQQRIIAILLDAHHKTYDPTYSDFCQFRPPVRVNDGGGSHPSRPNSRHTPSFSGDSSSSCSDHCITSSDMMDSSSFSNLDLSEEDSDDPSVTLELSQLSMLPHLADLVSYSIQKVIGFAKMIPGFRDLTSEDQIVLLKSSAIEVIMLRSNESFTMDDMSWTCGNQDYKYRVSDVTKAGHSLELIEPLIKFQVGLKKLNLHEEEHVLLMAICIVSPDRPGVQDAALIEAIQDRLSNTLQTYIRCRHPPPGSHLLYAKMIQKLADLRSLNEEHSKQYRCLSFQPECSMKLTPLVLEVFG
In words: VDR binding affinity, split-luciferase vitamin D biosensor. The conditions noted are these: for Relative binding affinity: normalized to that of 1; for VDR binding affinity (in words): comparison between compounds, Fig. 3a. On the procedure:
The binding affinity of each compound for the human VDR was evaluated as described previously[10],[19]. In brief, 49 μL of cell lysate derived from recombinant E. coli expressing split-luciferase vitamin D biosensor protein was added to individual wells of a 96-well plate. Next, 1 μL of ethanol solution of each compound at appropriate concentrations was added to each well and incubated for 30 min at 25 °C. Subsequently, 50 μL of the Luciferin solution containing 20 mM of MgSO4, 2 mM of D-luciferin, and 4 mM of adenosine triphosphate in 25 mM Tris–HCl (pH 7.4) was introduced into each well and incubated for 30 min at 25 °C. The luminescence (photon counts) was measured using a luminometer (Infinite 200 Pro 96-microplate luminometer, Tecan, Switzerland). […] X values were calculated using the following equation: X=10^logA/B×50-C/D-C+logB.
In this equation, A and B correspond to concentrations near 50% of the maximum relative light intensity. C and D represent the relative light intensity (%) at concentrations B and A, respectively.

A further assay concerns RAW264.7 cells. Put plainly: Osteoclastic differentiation-promoting activity (TRAP-positive multinucleated osteoclasts). Type of assay: cell-based. As to conditions: sRANKL 100 ng/mL, 4 days; relative to 50 μM 1, Fig. 4. On the procedure:
RAW264.7 cells were used as pre-osteoclastic cells. Cells were cultured in α-MEM medium containing 10% fetal bovine serum, 2 mM L-glutamine, 100 U/mL penicillin, and 100 μg/mL streptomycin. Osteoclastic differentiation was induced following treatment with 100 ng/mL sRANKL (Oriental Yeast, Japan), and each sample was added to the medium and incubated for 4 days with 5% CO2 at 37 °C. Cells were fixed in 10% glutaraldehyde for 15 min at 37 °C and subsequently incubated for 10 min at 37 °C in tartrate-resistant acid phosphatase (TRAP) buffer, containing 0.1 M sodium acetate, 0.1 M acetic acid, 10 mg/mL naphthol AS-MX phosphate, 0.1% Triton X-100, 0.3 M potassium tartrate, and 0.3 mg/mL Fast Red Violet LB Salt. TRAP-positive dark-red cells with more than three nuclei were manually counted under a light microscope (20× objective) as multinucleated osteoclasts. Y-27632[22] was used as a positive control.

[1] abbreviates: split-luciferase biosensor lysate, 25 °C, mean ± SD of at least triplicate determinations, read-out: Concentration at 50% maximum light intensity.

Entries after “also recorded” stand apart in the source; their conditions may differ. Like-named read-outs stand apart in the source and are kept apart here.

`C=C1CCC(O)CC1=CC=C1CCCC2(C)C1CCC2C(C)CCCC(C)(C)O` (stereo not shown) [VD-II, 25-hydroxyvitamin D3, reference compound]: the Relative binding affinity at human VDR came out at 1510. Also, the EC50 at human VDR (setting [1]) was determined as 0.074 ± 0.015 µM.
For `C=C1CCCC(C)(C)[C@@H]1CC/C(C)=C/CC[C@@H]1[C@@]2(C)CCCC(C)(C)[C@@H]2CC[C@@]1(C)O` [compound 1, ambrein], the EC50 at human VDR (Fig. 2b, Table S1, read-out: EC50 value (VDR binding affinity)) was found to be 112 ± 29 µM. This compound also came in with a Relative binding affinity at human VDR of 1.
On human VDR, `CC(C)=CCC/C(C)=C/CC/C(C)=C/CC[C@@H]1[C@@]2(C)CCCC(C)(C)[C@@H]2CC[C@@]1(C)O` [compound 3] had a Relative binding affinity of 0.88. For the same compound, the EC50 on human VDR (setting [1]) was determined as 128 ± 38 µM. In the assay with RAW264.7 cells, the “osteoclastic differentiation-promoting activity (in words)” value is “no activity”.
As for `C=C1CCCC(C)(C)C1CC/C(C)=C/CC/C=C(\C)CC/C=C(\C)CCC=C(C)C` (stereo not shown) [compound 4], the “relative intensity at a concentration of 100 μM” value at human VDR (100 μM, relative light intensity compared to control (1% ethanol)) was found to be 0.82 ± 0.07. In addition, the “VDR binding affinity (in words)” value on human VDR is on record as “did not bind to the VDR; also recorded: very low VDR binding affinity”.
Regarding `C=C1CC[C@H]2C(C)(C)CCC[C@]2(C)[C@H]1CC[C@@H]1[C@@]2(C)CCCC(C)(C)[C@@H]2CC[C@@]1(C)O` [compound 6], at human VDR, the “VDR binding affinity (in words)” value was “tenfold higher than that of 1” and the Relative binding affinity was 10. Further, the EC50 on human VDR (setting [1]) was 11.1 ± 1.5 µM. The “osteoclastic differentiation-promoting activity (in words)” value in the assay with RAW264.7 cells is “not comparable to that of 1”.
Turning to `C/C(=C\CC[C@@H]1[C@@]2(C)CCCC(C)(C)[C@@H]2CC[C@@]1(C)O)CC[C@H]1C(C)(C)CCC[C@]1(C)O` [compound 10], at human VDR, the Relative binding affinity turned out to be 4.6. For the same compound, the EC50 at human VDR (setting [1]) was determined as 24.6 ± 8.2 µM.
On to `CC1=CC[C@H]2C(C)(C)CCC[C@]2(C)[C@H]1CC[C@@H]1[C@@]2(C)CCCC(C)(C)[C@@H]2CC[C@@]1(C)O` [compound 11], for which, at human VDR, the “VDR binding affinity (in words)” value was “higher affinity than 10 and 15”; the Relative binding affinity is given as 8.9. Also, the EC50 on human VDR (setting [1]) is 12.6 ± 2.1 µM.
Turning to `C=C1CCCC(C)(C)[C@@H]1CC/C(C)=C/CC[C@H]1C(=C)CC[C@H]2C(C)(C)CCC[C@]12C` [compound 13], on human VDR, the “VDR binding affinity (in words)” value is “higher affinity than 10 and 15”; the Relative binding affinity was 7.0. At human VDR (setting [1]), the EC50 was 16 ± 2.2 µM.
Regarding `C=C1CC[C@H]2C(C)(C)[C@@H](O)CC[C@]2(C)[C@H]1CC[C@@H]1[C@@]2(C)CCCC(C)(C)[C@@H]2CC[C@@]1(C)O` [compound 14], the “VDR binding affinity (in words)” value at human VDR was “higher affinity than 10 and 15”. Moreover, the EC50 at human VDR (setting [1]) was determined as 13.9 ± 2.5 µM.
`C=C1CC[C@H](O)C(C)(C)[C@@H]1CC/C(C)=C/CC[C@@H]1[C@@]2(C)CCCC(C)(C)[C@@H]2CC[C@@]1(C)O` [compound 15] showed a Relative binding affinity at human VDR of 2.5. In addition, the EC50 at human VDR (setting [1]) was determined as 45.2 ± 17.1 µM.

Source of the values: publication PMC10792010, “Analysis of vitamin D receptor binding affinities of enzymatically synthesized triterpenes including ambrein and unnatural onoceroids” (Scientific Reports, 2024).
